PubChem BioAssay (NCI)
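Five compound concentrations were applied to cells in 96-well plates for 48 hours; endpoints were derived by simple linear interpolation of the resulting dose-response curve. TGI: concentration producing complete growth inhibition.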

Assays:
Assay in all cases: NCI anticancer screen, dose series, 48 h
[1] = tested on: M14 melanoma
[2] = tested on: LXFL 529 NSCLC
[3] = tested on: DMS 114 small cell lung
[4] = tested on: KM20L2 colon
[5] = tested on: MDA-MB-231 breast
[6] = tested on: PC-3 prostate
[7] = tested on: SN12C renal
[8] = tested on: SF-268 CNS
[9] = tested on: LOX IMVI melanoma
[10] = tested on: NCI-H460 lung
[11] = tested on: SF-539 CNS
[12] = tested on: KM12 colon
[13] = tested on: HL-60(TB) leukemia
[14] = tested on: HOP-18 NSCLC
[15] = tested on: T-47D breast
[16] = tested on: 786-0 renal
[17] = tested on: IGROV1 ovarian
[18] = tested on: NCI-H23 lung
[19] = tested on: OVCAR-8 ovarian
[20] = tested on: MDA-N
[21] = tested on: HCC-2998 colon
[22] = tested on: MOLT-4 leukemia
[23] = tested on: SK-OV-3 ovarian
[24] = tested on: U251 CNS
[25] = tested on: SK-MEL-28 melanoma
[26] = tested on: TK-10 renal
[27] = tested on: SW-620 colon
[28] = tested on: HOP-92 NSCLC
[29] = tested on: MCF7 breast
[30] = tested on: DU-145 prostate
[31] = tested on: DLD-1 colon
[32] = tested on: SNB-75 CNS
[33] = tested on: DMS 273 small cell lung
[34] = tested on: HS 578T breast
[35] = tested on: RXF-631 renal
[36] = tested on: UACC-257 melanoma
[37] = tested on: MALME-3M melanoma
[38] = tested on: EKVX NSCLC
[39] = tested on: COLO 205 colon
[40] = tested on: SF-295 CNS
[41] = tested on: OVCAR-4 ovarian
[42] = tested on: A549 NSCLC
[43] = tested on: UACC-62 melanoma
[44] = tested on: XF 498 CNS
[45] = tested on: UO-31 renal
[46] = tested on: HOP-62 NSCLC
[47] = tested on: NCI-H522 lung
[48] = tested on: CAKI-1 renal
[49] = tested on: HCT-116 colon
[50] = tested on: HT29 colon
[51] = tested on: BT-549 breast
[52] = tested on: NCI/ADR-RES ovarian
[53] = tested on: HCT-15 colon
[54] = tested on: SK-MEL-5 melanoma
[55] = tested on: RPMI-8226 leukemia
[56] = tested on: MDA-MB-435
[57] = tested on: OVCAR-3 ovarian
[58] = tested on: SNB-19 CNS
[59] = tested on: A498 renal
[60] = tested on: K-562 leukemia
[61] = tested on: NCI-H226 lung
[62] = tested on: OVCAR-5 ovarian
[63] = tested on: RXF 393 renal
[64] = tested on: SK-MEL-2 melanoma
[65] = tested on: ACHN renal

## Cn1c2ccccc2c(=O)c2c(O)cc3c(c21)CC(C1(C)CO1)O3 (stereo not given)
[1]
  TGI: 2.93 µM
[2]
  TGI: 1.5 µM
[3]
  TGI: 5.11 µM
[4]
  TGI: 31.8 µM
[5]
  TGI: 5.85 µM
[6]
  TGI: 14.2 µM
[7]
  TGI: 3.77 µM
[8]
  TGI: 4.11 µM
[9]
  TGI: 0.0613 µM
[10]
  TGI: 13.6 µM
[11]
  TGI: 10.8 µM
[12]
  TGI: 6.52 µM
[13]
  TGI: 2.32 µM
[14]
  TGI: > 93.2 µM
[15]
  TGI: 24.9 µM
[16]
  TGI: 5.06 µM
[17]
  TGI: 26.9 µM
[18]
  TGI: 4.14 µM
[19]
  TGI: 2.51 µM
[20]
  TGI: 2.73 µM
[21]
  TGI: 5.4 µM
[22]
  TGI: 1.45 µM
[23]
  TGI: 24.1 µM
[24]
  TGI: 11.7 µM
[25]
  TGI: 7.59 µM
[26]
  TGI: 42 µM
[27]
  TGI: 3.38 µM
[28]
  TGI: 30.8 µM
[29]
  TGI: 1.89 µM
[30]
  TGI: 36.1 µM
[31]
  TGI: 26.1 µM
[32]
  TGI: 24 µM
[33]
  TGI: 49.2 µM
[34]
  TGI: 5.31 µM
[35]
  TGI: > 33.6 µM
[36]
  TGI: 13.1 µM
[37]
  TGI: 28.4 µM
[38]
  TGI: 14 µM
[39]
  TGI: 19.7 µM
[40]
  TGI: 39.2 µM
[41]
  TGI: 31.2 µM
[42]
  TGI: 28.2 µM
[43]
  TGI: 4.9 µM
[44]
  TGI: 4.73 µM
[45]
  TGI: 4.09 µM
[46]
  TGI: 11.3 µM
[47]
  TGI: 9.79 µM
[48]
  TGI: 17.9 µM
[49]
  TGI: 3.06 µM
[50]
  TGI: 20 µM
[51]
  TGI: 4.5 µM
[52]
  TGI: 3.2 µM
[53]
  TGI: 30.6 µM
[54]
  TGI: 3.88 µM
[55]
  TGI: 22.6 µM
[56]
  TGI: 3.07 µM
[57]
  TGI: 12.9 µM
[58]
  TGI: 26.9 µM
[59]
  TGI: 33.9 µM
[60]
  TGI: 7.84 µM
[61]
  TGI: 32 µM
[62]
  TGI: 23.4 µM
[63]
  TGI: 2.85 µM
[64]
  TGI: 2.32 µM
[65]
  TGI: 5.73 µM
